# Data from patent US12139481B2, “Compositions comprising macrocycle derivatives incorporating bridged macrocycles and methods of producing and using same” (Southwestern Oklahoma State University, priority 2015, dated 2024).
# Where two headings read alike, the source gives them in different places.
# What was measured:
# [1] = system: Cryptococcus neoformans ATCC 90113; test: Antimicrobial microdilution assay against Cryptococcus neoformans (modified CLSI/NCCLS, optical density); assay type: cell-based; settings: for X more potent than Amphotericin B: C. neoformans, ratio of molar IC50 to Amphotericin B
# Outline: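 Broth microdilution (modified CLSI) in RPMI pH 6.0, samples serially diluted in 20% DMSO/saline and tested in duplicate, growth followed by OD630 before and after incubation. MFC is the lowest concentration giving no growth when 5 μL from clear wells is plated on agar.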
# [2] = system: L. donovani promastigotes; test: Antileishmanial Alamar Blue assay on promastigotes; assay type: cell-based, Leishmania donovani; settings: for X more potent than Pentamidine: L. donovani, ratio of molar IC50 to Pentamidine; for L. donovani IC50 / IC50: promastigotes, 48 hours, Alamar Blue; for IC50: read-out: L. donavani IC50
# Outline: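 L. donovani promastigotes in RPMI 1640 with 10% FCS, from 3-day culture, were set at 5×10^5/mL and exposed to compound (50-3.1 μg/mL) for 48 hours at 26° C. Growth read by Alamar Blue fluorescence (ex 544/em 590 nm); IC50 from percent growth versus concentration.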
# C. krusei ATCC 6258 = test: Antifungal broth dilution assay against C. krusei (modified CLSI); assay type: cell-based, Candida krusei; settings: for X more potent than Amphotericin B: C. krusei, ratio of molar IC50 to amphotericin B; for C. krusei IC50 / IC50: in vitro; for IC50: read-out: C. krusei IC50 (mol/L)
# Experimental: (§1) General Experimental Procedures. All organisms were obtained from the American Type Culture Collection (Manassas, VA) and include the fungi Candida albicans ATCC 90028, C. glabrata ATCC 90030, C. krusei ATCC 6258, and Cryptococcus neoformans ATCC 90113, and the bacteria Staphylococcus aureus ATCC 29213 and methicillin-resistant S. aureus ATCC 33591 (MRS). All organisms were tested using modified versions of the CLSI (formerly NCCLS) methods. For all organisms, optical density was used to monitor growth (NCCLS, Reference Method for Broth Dilution Antifungal Susceptibility Testing of Yeasts; Approved Standard M27-A2. National Committee on Clinical Laboratory Standards, 2002 22 (15); and NCCLS, Methods for Dilution Antimicrobial Susceptibility Tests for Bacteria that Grow Aerobically; Approved Standard, Seventh Edition M7-A7. National Committee on Clinical Laboratory Standards, 2006. 26(2)).
# (§2) Samples (dissolved in DMSO) were serially-diluted in 20% DMSO/saline and transferred (10 μL) in duplicate to 96 well flat bottom microplates. Inocula were prepared by correcting the OD630 of microbe suspensions in incubation broth [RPMI 1640/0.2% dextrose/0.03% glutamine/MOPS @ pH 6.0 (Cellgro) for Candida spp., Sabouraud Dextrose for C. neoformans, and cation-adjusted Mueller-Hinton (Difco) @ pH 7.3 for Staphylococcus spp. to afford an assay volume of […] and final target inocula of: Candida spp. and C. neoformans: 1.5×10^3, and Staphylococcus spp.: 5.0×10^5 CFU/ml. Final sample test concentrations were 1/100th the DMSO stock concentration. […] All organisms were read at either 530 nm using the Biotek Powerwave XS plate reader (Bio-Tek Instruments, Vermont) prior to and after incubation: Candida spp. at 35° C. for 46-50 h, Staphylococcus spp. at 35° C. for 16-20 h, and C. neoformans at 35° C. for 70-74 h. IC50s (concentrations that afford 50% inhibition relative to controls) were calculated using XLfit 4.2 software (IDBS, Alameda, CA) using fit model 201. The MIC is defined as the lowest test concentration that allows no detectable growth. Minimum fungicidal or bactericidal concentrations were determined by removing 5 μl from each clear (or blue) well, transferring to fresh media, and incubating as previously mentioned. The MFC/MBC is defined as the lowest test concentration that kills the organism (allows no growth).
# (§3) Primary Analysis. Samples were tested in duplicate at one test concentration (50 μg/mL), and percent inhibitions were calculated relative to blank and growth controls. Samples showing 50% inhibition in at least one test organism were selected for dose response (Secondary) studies.
# (§4) Secondary Analysis. Extracts from the Primary Assay, and first-run pure compounds and column fractions were tested in duplicate at 3 test concentrations (5-fold dilutions). Samples dissolved to 20 mg/mL in DMSO were tested at 200, 40, and 8 μg/mL. Samples dissolved to 2 mg/mL in DMSO were tested at 20, 4, and 0.8 μg/mL.
# C. glabrata ATCC 90030 = test: Antifungal broth dilution assay against C. glabrata (modified CLSI); assay type: cell-based, Candida glabrata; settings: for C. glabrata IC50 / IC50: in vitro; for IC50: converted with molecular weight; for X more potent than Amphotericin B: molar IC50 ratio versus amphotericin B
# Experimental: as §1, §2, §3, §4
# [3] = in vitro, C. neoformans ATCC 90113
# [4] = in vitro, C. neoformans ATCC 90113, read-out: C. neoformans IC50 (mol/L)
Compound,X more potent than Amphotericin B [1],"C. neoformans IC50 [1, 3]","IC50 [1, 4]",X more potent than Pentamidine [2],L. donovani IC50 [2],IC50 [2],X more potent than Amphotericin B (C. krusei ATCC 6258),C. krusei IC50 (C. krusei ATCC 6258),IC50 (C. krusei ATCC 6258),IC50 ([1]; read-out: IC50 against C. neoformans),C. glabrata IC50 (C. glabrata ATCC 90030),IC50 (C. glabrata ATCC 90030),X more potent than Amphotericin B (C. glabrata ATCC 90030),"IC50 ([1]; in vitro, C. neoformans ATCC 90113, HCl salt, read-out: C. neoformans IC50 (mol/L))"
"O=[N+]([O-])c1ccc(CC2CNCCN(Cc3ccc(CN4CCCN5CCN(CCCNCC4)CC5)cc3)CCCN3CCN(CC3)C2)cc1.[Cu+2].[Cu+2].[O-][Cl+3]([O-])([O-])[O-].[O-][Cl+3]([O-])([O-])[O-].[O-][Cl+3]([O-])([O-])[O-].[O-][Cl+3]([O-])([O-])[O-] (stereo not drawn) [SJA234, [Cu2(bis-SB-C-Ar-NO2)(ClO4)4]]",0.15,1.910 µg/mL,1570 nM,0.21,30.31 µg/mL,25000 nM,0.40,4.550 µg/mL,3740 nM,–,–,–,–,–
"CC(=O)[O-].F[P-](F)(F)(F)(F)F.F[P-](F)(F)(F)(F)F.F[P-](F)(F)(F)(F)F.[Mn+2].[NH4+].[NH4+].c1ccc(CN2CCN3CCCN(CC2)CCN(Cc2ccccc2)CC3)cc1 [AW036, [Mn(Bn2PBCyclen)(C2H3O2)]PF6•2NH4PF6]",0.03,7.070 µg/mL,7230 nM,0.20,25.41 µg/mL,26000 nM,0.29,4.990 µg/mL,5100 nM,–,–,–,–,–
"C[C@@H]1[C@H](O)[C@@H](C)/C=C/C=C/C=C/C=C/C=C/C=C/C=C/[C@H](O[C@@H]2O[C@H](C)[C@@H](O)[C@H](N)[C@@H]2O)C[C@@H]2O[C@](O)(C[C@@H](O)C[C@@H](O)[C@H](O)CC[C@@H](O)C[C@@H](O)CC(=O)O[C@H]1C)C[C@H](O)[C@H]2C(=O)O [AMB, Amphotericin B, reference compound]",1.00,0.220 µg/mL,–,–,–,–,1.00,1.380 µg/mL,1490 nM,238 nM,1.310 µg/mL,1420 nM,1.00,–
"c1cc(CN2CCNCCCN3CCN(CC3)CC2)ccc1CN1CCNCCCN2CCN(CC2)CC1 [OB45, p-SB-Homocyclens]",0.16,≤ 0.800 µg/mL,1520 nM,0.16,17.44 µg/mL,33100 nM,0.98,0.800 µg/mL,1520 nM,–,–,–,–,–
"O=[N+]([O-])c1ccc(CC2CNCCN(Cc3ccc(CN4CCCN5CCN(CCCNCC4)CC5)cc3)CCCN3CCN(CC3)C2)cc1 (stereo not drawn) [SJA233, Bis-SB-C-Ar-NO2]",0.30,0.550 µg/mL,797 nM,0.12,30.32 µg/mL,43900 nM,0.25,4.070 µg/mL,5900 nM,–,–,–,–,–
"CC(=O)[O-].CC(=O)[O-].F[P-](F)(F)(F)(F)F.F[P-](F)(F)(F)(F)F.O.[Ni+2].[Ni+2].c1cc(CN2CCNCCN3CCN(CC3)CC2)cc(CN2CCNCCN3CCN(CC3)CC2)c1 [OB35, [Ni2(m-SB-Cyclens)(OAc)2][PF6]2•H2O]",0.31,≤ 0.800 µg/mL,768 nM,–,–,–,1.95,0.800 µg/mL,768 nM,–,–,–,–,–
"Cl.Cl.Cl.Cl.Cl.Cl.Cl.Cl.c1cc(CN2CCNCCCN3CCN(CC3)CC2)cc(CN2CCNCCCN3CCN(CC3)CC2)c1 [OB46B, m-SB-homocyclens HCl salt]",0.75,0.280 µg/mL,–,0.13,34.26 µg/mL,41900 nM,0.16,7.420 µg/mL,9060 nM,–,–,–,–,318 nM
"CC(=O)[O-].F[P-](F)(F)(F)(F)F.[Zn+2].c1ccc(CN2CCN3CCCN(CC2)CCN(Cc2ccccc2)CC3)cc1 [AW041, [Zn(Bn2PBCyclen)(C2H3O2)]PF6]",0.02,7.330 µg/mL,–,0.15,22.92 µg/mL,–,0.19,5.170 µg/mL,–,–,–,–,–,–
"CC(=O)[O-].CC(=O)[O-].F[P-](F)(F)(F)(F)F.F[P-](F)(F)(F)(F)F.O.O.[Cu+2].[Cu+2].c1cc(CN2CCNCCN3CCN(CC3)CC2)cc(CN2CCNCCN3CCN(CC3)CC2)c1 [OB34, [Cu2(m-SB-Cyclens)(OAc)2][PF6]2•2H2O]",0.32,≤ 0.800 µg/mL,748 nM,–,–,–,0.28,5.780 µg/mL,5400 nM,–,–,–,–,–
[Zn3(tris-CB-Cyclams)(OAc)3][PF6]3•2.4NH4PF6 [BNS26],0.07,6.840 µg/mL,3360 nM,–,–,–,2.49,1.220 µg/mL,600 nM,–,2.140 µg/mL,1050 nM,1.35,–
"c1c(CN2CCNCCN3CCN(CC3)CC2)cc(CN2CCNCCN3CCN(CC3)CC2)cc1CN1CCNCCN2CCN(CC2)CC1 [CDG29, tris-SB-cyclens]",1.69,0.100 µg/mL,141 nM,0.32,11.69 µg/mL,16500 nM,0.23,4.660 µg/mL,6570 nM,–,–,–,–,–
